Measurements taken from US9975846B2, “Multivalent compounds for use in the treatment and prevention of brain damage” (MEDICORTEX FINLAND OY, priority 2014, dated 2018).

What was measured:
[1] = system: mouse model of experimental closed head injury; experiment: Mouse model of experimental closed head injury: cognitive rehabilitation after traumatic brain injury; format: in vivo; conditions: closed head injury by weight-drop; s.c. from day 8 onwards, three times a week; behavioral tests at baseline, day 7, day 30
Protocol: A mouse model of experimental closed head injury disclosed by Yatsiv et al. in FASEB J. 2005, 19:1701-1703 is employed for testing the efficacy of the present compounds to improve functional recovery after a head trauma caused by a weight-drop onto an exposed skull.
Severity of the injury is assessed according to the Neurological Severity Score disclosed by Beni-Adani et al. (J. Pharmacol. Exp. Ther. 2001, 296:57-63) on the basis of ten individual tasks reflecting motor function, alertness, and behaviour.
Each test compound, control compound, or vehicle is administered subcutaneously from day 8 onwards, three times a week.
Behavioral tests, including open field (OF), elevated plus maze (EMP), and social recognition tests are carried out at baseline, on day 7, and day 30.
After euthanization, plasma levels of cytokines and TBI-specific biomarkers, such as S100B, are determined and the brains are evaluated histologically.

[2] = system: rat model of experimental closed head injury; experiment: Rat model of experimental closed head injury: behaviour, brain edema, lesion volume, inflammatory markers; format: in vivo; conditions: oral 6 h post-injury
Protocol: A rat model of experimental closed head injury disclosed by Bilgen et al. (Neurorehabil. Neural Repair, 2005, 19:219-226) with some modifications is employed for testing the effect of the present compounds on behaviour, brain edema, lesion volume, and inflammatory markers after a head trauma.
Each test compound, control compound, or vehicle is administered orally 6 h post-injury.
In vivo T2 weighted magnetic resonance imaging (MRI) is performed on the animals to depict the pathologies, including lesion size, tissue viability, and brain edema, of the resulting injuries in the corresponding neuronal tissues at 24 h and day 3.
Behavioral tests, including a seven-point neuroscore test modified from Zausinger et al. (Brain Res., 2000, 863:94-105), are used to assess motor and behavioural deficits by a blinded investigator at baseline and on days 1, 3, 7, 14, and 28 post-injury. Additionally, sensimotor recovery of forelimb and hindlimb responses to tactile and proprioceptive stimulation is evaluated by a limb-placing test essentially as described by Jolkkonen et al. in Restor. Neurol. Neurosci., 2000, 17:211-216.
After euthanization, histological evaluation of the injury in the cortex and hippocampus is performed. Additionally, inflammatory markers, astrocytic and microglial activation is evaluated by immunohistochemistry.

[3] = system: MPTP mouse model of Parkinson's disease; experiment: MPTP mouse model of Parkinson's disease: dopaminergic system protection; format: in vivo; conditions: MPTP 4 x 15 mg/kg i.p.; daily i.p. for 14 days from Day 0; striatal tissue by HPLC
Protocol: In the model, depletion of striatal dopamine (DA) and dopaminergic neuronal death in the substantia nigra (SN) is caused by systemic administration of MPTP (1-methyl-4-phenyl-1,2,3,6-tetrahydropyridine). To be more specific, MPTP is administered twice daily, 3 hours apart, by i.p. injections on Day 0 and Day 1. Each dose is 15 mg/kg, the total dose being 60 mg/kg.
Each test compound, control or vehicle is administered by daily i.p. injections for 14 days starting from Day 0.
After euthanization on Day 14, blood samples are collected by cardiac punctures and stored at −80° C. for further analysis. Blood is removed from the brains by transcardial perfusion with saline. Posterior brain blocks containing the SN are then removed and processed for cryosectioning, while striata are dissected in toto, pooled, weighted, snap-frozen in liquid nitrogen, and stored at −80° C.
20-μm-thick coronal cryosections are analysed immunohistochemically for the expression of tyrosine hydroxylase (TH), a rate-limiting enzyme in dopamine synthesis by counting the number of TH-positive neurons bilaterally in the SN.
Striatal tissue samples are analysed for DA and its two metabolites, 3,4-dihydroxyphenylacetic acid (DOPAC) and homovanillic acid (HVA), levels by HPLC.

MPTP model = experiment: Modified MPTP mouse model: dopaminergic system protection and behavioral skills; format: in vivo, mice; conditions: MPTP 4 x 10 mg/kg i.p. Day 1; s.c. three times a week Day 2 to Day 21; rotarod, pole, social recognition tests
Protocol: In this administration scheme, mice are injected i.p. four times with a MPTP dose of 10 mg/kg, two hours apart, on Day 1. Each test compound, control and vehicle are administered s.c. three times a week from Day 2 until Day 21. The present compounds are administered either alone or in combination with a non-steroidal anti-inflammatory drug, antioxidant, and/or metal ions chelate. One week prior to the MPTP dosing, the mice are trained for a rotarod performance test for three days. The rotarod test is then repeated four times during the course of the experiment. Motor performance and coordination is also tested by a pole test. Social recognition test is conducted once on the last days of the experiment.

[4] = T2 weighted MRI at 24 h and day 3

SMILES: CCCCC/C=C\C/C=C\CCCCCCCC(=O)Nc1ccc(OC(=O)c2cccc(O)c2O)c(OCCOc2ccccc2OC(=O)c2cccc(O)c2O)c1 [TBI-446, 2-(2-(2-((2,3-dihydroxybenzoyl)oxy)-5-((9Z,12Z)-octadeca-9,12-dienamido)phenoxy)ethoxy)phenyl 2,3-dihydroxybenzoate]
- cognitive rehabilitation of the mice [1]: improved cognitive rehabilitation
- brain edema after closed head injury [2, 4]: decreased
- lesion volume after closed head injury [2, 4]: decreased
- levels of inflammatory markers ([2]; immunohistochemistry after euthanization): decreased
- protection of the dopaminergic system from reduction of striatal DA levels caused by MPTP [3]: protect the dopaminergic system from the reduction of the DA levels
- behavioural recovery (MPTP model): behavioural recovery
